Assay results taken from ChEMBL document CHEMBL4371002 (J Med Chem, 2018).

What was measured:
[1] = target: T1, 3-oxo-5-alpha-steroid 4-dehydrogenase 2 (Rattus norvegicus, UniProt P31214)
T1 sequence (P31214 whole entry): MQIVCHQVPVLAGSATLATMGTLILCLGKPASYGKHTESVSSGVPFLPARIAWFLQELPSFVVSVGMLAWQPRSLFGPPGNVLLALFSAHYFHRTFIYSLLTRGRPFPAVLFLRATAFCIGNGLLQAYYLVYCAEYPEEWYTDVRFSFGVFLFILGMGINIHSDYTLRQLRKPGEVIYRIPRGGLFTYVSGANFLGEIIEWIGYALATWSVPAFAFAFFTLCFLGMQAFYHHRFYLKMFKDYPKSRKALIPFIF

[2] = target: T2, 3-oxo-5-alpha-steroid 4-dehydrogenase 1 (Rattus norvegicus, UniProt P24008)
T2 sequence (P24008 whole entry): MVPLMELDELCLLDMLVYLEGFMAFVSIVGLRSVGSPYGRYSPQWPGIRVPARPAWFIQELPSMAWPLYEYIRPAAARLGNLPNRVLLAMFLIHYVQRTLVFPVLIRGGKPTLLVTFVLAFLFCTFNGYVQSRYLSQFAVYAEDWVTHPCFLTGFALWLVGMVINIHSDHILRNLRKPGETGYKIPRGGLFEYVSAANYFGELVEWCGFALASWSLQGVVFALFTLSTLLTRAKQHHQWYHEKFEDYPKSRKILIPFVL

[3] = target: T3, 3-oxo-5-alpha-steroid 4-dehydrogenase 2 (Homo sapiens, UniProt P31213)
T3 sequence (P31213 whole entry): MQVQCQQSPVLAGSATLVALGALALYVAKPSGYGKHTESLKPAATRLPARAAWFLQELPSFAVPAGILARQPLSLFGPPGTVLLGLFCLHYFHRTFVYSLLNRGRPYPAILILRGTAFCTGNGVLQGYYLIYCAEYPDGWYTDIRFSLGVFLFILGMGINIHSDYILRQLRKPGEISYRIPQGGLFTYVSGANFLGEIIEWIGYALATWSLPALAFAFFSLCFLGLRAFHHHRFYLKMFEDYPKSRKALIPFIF

[4] = target: T4, 3-oxo-5-alpha-steroid 4-dehydrogenase 1 (Homo sapiens, UniProt P18405)
T4 sequence (P18405 whole entry): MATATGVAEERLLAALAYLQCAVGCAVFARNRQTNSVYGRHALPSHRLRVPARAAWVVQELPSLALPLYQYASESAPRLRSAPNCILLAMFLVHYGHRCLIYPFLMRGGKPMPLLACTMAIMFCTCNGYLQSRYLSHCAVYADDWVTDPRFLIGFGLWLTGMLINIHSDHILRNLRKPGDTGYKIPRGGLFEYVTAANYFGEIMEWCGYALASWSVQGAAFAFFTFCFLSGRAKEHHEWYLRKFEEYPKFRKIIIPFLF

[5] = target: T3, 3-oxo-5-alpha-steroid 4-dehydrogenase 2; remark: listed apart in the source
[6] = target: T4, 3-oxo-5-alpha-steroid 4-dehydrogenase 1; type: cell-based, HEK293
[7] = target: Tyrosine-protein phosphatase non-receptor type 1 (Homo sapiens, UniProt P18031); type: cell-based, Sf9
Chain of Tyrosine-protein phosphatase non-receptor type 1 (P18031 whole entry): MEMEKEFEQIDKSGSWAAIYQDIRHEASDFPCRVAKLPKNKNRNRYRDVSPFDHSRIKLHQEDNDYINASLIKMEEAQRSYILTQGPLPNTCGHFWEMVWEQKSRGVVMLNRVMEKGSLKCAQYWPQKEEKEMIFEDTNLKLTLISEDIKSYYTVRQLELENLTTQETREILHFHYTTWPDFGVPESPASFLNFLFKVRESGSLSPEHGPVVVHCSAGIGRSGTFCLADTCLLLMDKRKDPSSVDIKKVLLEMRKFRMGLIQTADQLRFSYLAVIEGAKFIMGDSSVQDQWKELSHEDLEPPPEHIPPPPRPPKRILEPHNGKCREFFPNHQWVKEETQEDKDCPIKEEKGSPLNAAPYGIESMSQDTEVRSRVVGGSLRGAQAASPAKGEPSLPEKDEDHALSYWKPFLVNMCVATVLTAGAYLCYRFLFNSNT

| SMILES | IC50 [1] | IC50 [2] | IC50 [3] | IC50 [4] | IC50 [5] | IC50 [6] | EC50 [7] |
| --- | --- | --- | --- | --- | --- | --- | --- |
| CC(C)(C)NC(=O)[C@H]1CC[C@H]2[C@@H]3CC[C@H]4NC(=O)C=C[C@]4(C)[C@H]3CC[C@]12C [FINASTERIDE] | 32 nM | 30 nM | 0.18 to 11.3 nM | 150 to 470 nM | 58 nM | 650 nM |  |
| O=C(c1ccccc1)C(Cc1ccc(C(F)(F)P(=O)(O)O)c(Br)c1)c1ccccc1 (configuration not stated) |  |  |  |  |  |  | 1200 nM |
